The subject of one data set is PFF-injected old mice. Nature of the data set: Hindlimb clasping in PFF-injected mice. Format: in vivo, mouse. Conditions: 10 and/or 50 mg/kg oral, vs PFF only. Here is the method:
(§1) A mouse model of Parkinson's disease is C57BL/6 male or female mice (50% each) injected with 5 μg of mouse PFF at 12 months old, followed by a treatment below for 6-7 weeks: • 1) without PFF injection, followed by vehicle (control, n=7); • 2) PFF injection, followed by vehicle (PFF only: control, n=8); • 3) PFF injection, followed by daily 10 mg/kg Momordin gavage (n=7-8); • 4) PFF injection, followed by daily 50 mg/kg Momordin gavage (n=7-8).
Hindlimb Clasping. This is often characterized by bat-like posture when mice are picked up by the tail, indicating they are experiencing severe motor deficits. A mouse was placed on a horizontal plane and held at 2 cm from the tail tip, then slowly to the height of 10 cm from the surface. A video was recorded for 15 sec for each trial. A total of 3 trials were taken over 3 consecutive days and analyzed for the time in hindlimb clasping by a blinded rater.

For another data set, the system named is N27 cells. Description: Cytotoxicity (LDH) assay after PFF exposure. Type of data set: cell-based, rat. The note with it: N27 cells, PFF treatment; compared to PFF only control. How it is done:
Cytotoxicity Assay. The lactate dehydrogenase (LDH) is a cytosolic enzyme that is released into the media during cellular stress and increased levels of cytotoxicity. The cytotoxicity assay was measured using reagents from the Pierce LDH Cytotoxicity Assay Kit (88954, Thermo). For the assay, 50 μL of media from each well after PFF exposure, followed by SENP-1 treatment, was put into wells of a new 96-well plate. The LDH reagents were prepared according to the protocol provided, and 50 μL of the LDH reagent was mixed into each well. The total 100 μL of media containing LDH and its reagent were incubated at 37° C. for 30 min, followed by the application of a stop solution. The mixture was analyzed using a spectrophotometer (SpectraMax M5e, Molecular devices) at 490 nm with a reference wavelength of 680 nm.
In this study, numerous commercially available SENP-1 inhibitors were tested for the recovery effects from preformed fibrils of alpha-synuclein (PFF)-induced PD models in vitro. The screening process includes several SENP-1 inhibitors, including specific SENP-1 inhibitors (e.g., SUMO-2 Aldehyde, Momordin lc, streptonigrin, hinokiflavonem, and siRNAs of SENP-1) and nonspecific SENP-1 inhibitors (e.g., oleanolic acid, gallic acid), in N27 dopaminergic cells after the exposure of PFF for 24 hrs.

Another data set addresses T1, SENP-1 (Mus musculus, UniProt P59110).
T1 construct: from tissue; host or cells: mouse brain: midbrain (MB) and striatum (STR) extracts
T1 sequence (P59110 1-640): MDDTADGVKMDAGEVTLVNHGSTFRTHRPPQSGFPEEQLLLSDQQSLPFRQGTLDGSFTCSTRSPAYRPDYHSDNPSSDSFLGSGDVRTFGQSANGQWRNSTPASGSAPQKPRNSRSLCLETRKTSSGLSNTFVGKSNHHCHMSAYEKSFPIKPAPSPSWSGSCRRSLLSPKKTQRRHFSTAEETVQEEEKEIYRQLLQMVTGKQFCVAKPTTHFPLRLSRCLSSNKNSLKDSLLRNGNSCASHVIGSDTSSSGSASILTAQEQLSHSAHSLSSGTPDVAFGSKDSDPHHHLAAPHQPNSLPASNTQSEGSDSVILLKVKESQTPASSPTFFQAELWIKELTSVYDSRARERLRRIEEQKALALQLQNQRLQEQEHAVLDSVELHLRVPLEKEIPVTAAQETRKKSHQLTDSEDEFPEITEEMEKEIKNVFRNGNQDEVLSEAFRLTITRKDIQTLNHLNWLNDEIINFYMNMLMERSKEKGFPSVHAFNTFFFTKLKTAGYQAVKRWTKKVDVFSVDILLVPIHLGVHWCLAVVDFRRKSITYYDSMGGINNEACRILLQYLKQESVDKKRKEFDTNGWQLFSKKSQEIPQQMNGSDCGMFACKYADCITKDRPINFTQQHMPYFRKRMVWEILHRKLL
Nature of the data set: Western blot of SENP-1 in brain tissue extracts of PFF-injected mice. The note with it: vs PFF only. Type of data set: in vivo. How it is done: as §1
Immunoblot Analyses. A total of three protein extractions were performed. In the first extraction, a gentle RIPA buffer containing the low concentration of detergent (25 mM Tris-HCL, 150 mM NaCl, 1% NP-40, 1% sodium deoxycholate and 0.1% SDS) was added with phosphatase inhibitors (100 μL for 10 mL) and 5 mM EDTA. The mixture was sonicated and centrifuged at 14,000 rpm for 10 min. The supernatant was collected for measuring the levels of phosphorylated α-syn, SENP-1 or SUMO-1 conjugated proteins for different groups. […] The primary antibodies pertaining to each protein analyzed were diluted at 1:1000 (p-Ser-129-α-synuclein, Cell signaling; SENP-1, SAB4501345, EMD) and incubated at 4° C. overnight. […] ImageJ was used to analyze specific bands on each blot and measured against the loading control (β-actin) for normalizing each band intensity.

The subject of another data set is protein aggregates. Nature of the data set: Thioflavin-T protein aggregation in brain sections of PFF-injected mice. Format: in vivo, mouse.
Setting [1] is: both 10 and 50 mg/kg oral, PFF-injected mice, vs PFF only.

Results on 1 compound are retold here after patent US20260021167A1, “COMPOSITIONS AND METHODS FOR TREATING OR PREVENTING NEURODEGENERATIVE DISEASES” (Delaware State University, priority 2022, published 2026).

As to `CC1(C)CC[C@]2(C(=O)O)CC[C@]3(C)C(=CC[C@@H]4[C@@]5(C)CC[C@H](O[C@@H]6O[C@H](C(=O)O)[C@@H](O)[C@H](O[C@@H]7OC[C@@H](O)[C@H](O)[C@H]7O)[C@H]6O)C(C)(C)[C@@H]5CC[C@]43C)[C@@H]2C1` [Momordin lc], the hindlimb clasping result in the data set on PFF-injected old mice was “reduces hindlimb clasping”. In the data set on N27 cells, the “cytotoxicity derived from PFF (LDH assay)” value is reported as “significantly reduced the cytotoxicity”. In addition, the “PFF-induced SENP-1 in the MB (Western blot, tissue extracts)” value on SENP-1 (midbrain) is listed as “reduced”. Besides, the “PFF-induced SENP-1 in the STR (Western blot, tissue extracts)” value at SENP-1 (striatum) is reported as “reduced”. Also, the “level of alpha-synuclein accumulation/aggregation in Thioflavin-T staining in various brain regions” value in the data set with protein aggregates (PFF injection, mouse brains) is recorded as “reduced the level of alpha-synuclein accumulation/aggregation”. In the data set with protein aggregates (setting [1]), the “level of protein aggregates (Thioflavin-T) in the SNc” value is recorded as “significantly reduced” and the “level of protein aggregates (Thioflavin-T) in the striatum” value was “significantly reduced”.
